{"source": "ChEMBL document CHEMBL1255421", "about": "“In vitro fungicidal activities of echinocandins against Candida metapsilosis, C. orthopsilosis, and C. parapsilosis evaluated by time-kill studies” (2010)", "key": {"[1]": {"system": "Candida orthopsilosis", "assay": "Antifungal activity against Candida orthopsilosis clinical isolate bloodstream form assessed as time required for 90% reduction in fungal growth at 4 mg/L by time-kill assay", "type": "functional"}, "[2]": {"system": "Candida metapsilosis", "assay": "Antifungal activity against Candida metapsilosis clinical isolate bloodstream form assessed as time required for 50% reduction in fungal growth at 1 mg/L by time-kill assay", "type": "functional"}, "[3]": {"system": "Candida parapsilosis", "assay": "Fungicidal activity against Candida parapsilosis isolate CP-302 bloodstream form by CLSI method", "type": "functional", "conditions": "Lodderomyces parapsilosis"}, "[4]": {"system": "Candida orthopsilosis", "assay": "Antifungal activity against Candida orthopsilosis clinical isolate bloodstream form assessed as time required for 99% reduction in fungal growth at 4 mg/L by time-kill assay", "type": "functional"}, "[5]": {"system": "Candida orthopsilosis", "assay": "Antifungal activity against Candida orthopsilosis clinical isolate bloodstream form assessed as time required for 50% reduction in fungal growth at 0.25 mg/L by time-kill assay", "type": "functional"}, "[6]": {"system": "Candida orthopsilosis", "assay": "Antifungal activity against Candida orthopsilosis clinical isolate bloodstream form assessed as time required for 90% reduction in fungal growth at 32 mg/L by time-kill assay", "type": "functional"}, "[7]": {"system": "Candida orthopsilosis", "assay": "Antifungal activity against Candida orthopsilosis clinical isolate bloodstream form assessed as time required for 90% reduction in fungal growth at 16 mg/L by time-kill assay", "type": "functional"}, "[8]": {"system": "Candida orthopsilosis", "assay": "Antifungal activity against Candida orthopsilosis clinical isolate bloodstream form assessed as time required for 50% reduction in fungal growth at 4 mg/L by time-kill assay", "type": "functional"}, "[9]": {"system": "Candida orthopsilosis", "assay": "Antifungal activity against Candida orthopsilosis clinical isolate bloodstream form assessed as mild induction of fungal death at 0.03 to 32 mg/L after 6 hrs by time-kill assay", "type": "functional, organism-based"}, "[10]": {"system": "Candida metapsilosis", "assay": "Antifungal activity against Candida metapsilosis clinical isolate bloodstream form assessed as time required for 99% reduction in fungal growth at 0.25 mg/L by time-kill assay", "type": "functional"}, "[11]": {"system": "Candida parapsilosis", "assay": "Antifungal activity against Candida parapsilosis clinical isolate bloodstream form assessed as time required for 99.9% reduction in fungal growth at 32 mg/L by time-kill assay", "type": "functional"}, "[12]": {"system": "Candida parapsilosis", "assay": "Antifungal activity against Candida parapsilosis clinical isolate bloodstream form assessed as time required for 99.9% reduction in fungal growth at 0.25 mg/L by time-kill assay", "type": "functional"}, "[13]": {"system": "Candida metapsilosis", "assay": "Antifungal activity against Candida metapsilosis clinical isolate bloodstream form assessed as time required for 50% reduction in fungal growth at 0.25 mg/L by time-kill assay", "type": "functional"}, "[14]": {"system": "Candida orthopsilosis", "assay": "Antifungal activity against Candida orthopsilosis clinical isolate bloodstream form assessed as time required for 99% reduction in fungal growth at 16 mg/L by time-kill assay", "type": "functional"}, "[15]": {"system": "Candida metapsilosis", "assay": "Fungicidal activity against Candida metapsilosis isolate ATC193 bloodstream form by CLSI method", "type": "functional", "conditions": "Lodderomyces metapsilosis, isolate ATC-193"}, "[16]": {"system": "Candida parapsilosis", "assay": "Antifungal activity against Candida parapsilosis clinical isolate bloodstream form assessed as time required for 99% reduction in fungal growth at 32 mg/L by time-kill assay", "type": "functional"}, "[17]": {"system": "Candida parapsilosis", "assay": "Antifungal activity against Candida parapsilosis clinical isolate bloodstream form assessed as time required for 99% reduction in fungal growth at 1 mg/L by time-kill assay", "type": "functional"}, "[18]": {"system": "Candida orthopsilosis", "assay": "Antifungal activity against Candida orthopsilosis clinical isolate bloodstream form assessed as induction of maximal fungal death at 1 mg/L after 48 hrs by time-kill assay", "type": "functional, organism-based"}, "[19]": {"system": "Candida parapsilosis", "assay": "Fungicidal activity against Candida parapsilosis isolate CP-300 bloodstream form by CLSI method", "type": "functional", "conditions": "Lodderomyces parapsilosis"}, "[20]": {"system": "Candida metapsilosis", "assay": "Antifungal activity against Candida metapsilosis clinical isolate bloodstream form assessed as time required for 99.9% reduction in fungal growth at 32 mg/L by time-kill assay", "type": "functional"}, "[21]": {"system": "Candida orthopsilosis", "assay": "Fungicidal activity against Candida orthopsilosis isolate CP-131 bloodstream form by CLSI method", "type": "functional", "conditions": "Lodderomyces orthopsilosis"}, "[22]": {"system": "Candida metapsilosis", "assay": "Antifungal activity against Candida metapsilosis clinical isolate bloodstream form assessed as time required for 99% reduction in fungal growth at 16 mg/L by time-kill assay", "type": "functional"}, "[23]": {"system": "Candida parapsilosis", "assay": "Antifungal activity against Candida parapsilosis clinical isolate bloodstream form assessed as time required for 90% reduction in fungal growth at 32 mg/L by time-kill assay", "type": "functional"}, "[24]": {"system": "Candida metapsilosis", "assay": "Antifungal activity against Candida metapsilosis clinical isolate bloodstream form assessed as time required for 99.9% reduction in fungal growth at 1 mg/L by time-kill assay", "type": "functional"}, "[25]": {"system": "Candida orthopsilosis", "assay": "Antifungal activity against Candida orthopsilosis clinical isolate bloodstream form assessed as induction of miniparadoxical effect at 32 mg/L after 48 hrs by time-kill assay", "type": "functional, organism-based"}, "[26]": {"system": "Candida parapsilosis", "assay": "Antifungal activity against Candida parapsilosis clinical isolate bloodstream form assessed as time required for 99.9% reduction in fungal growth at 1 mg/L by time-kill assay", "type": "functional"}, "[27]": {"system": "Candida orthopsilosis", "assay": "Fungicidal activity against Candida orthopsilosis isolate ATC194 bloodstream form by CLSI method", "type": "functional", "conditions": "Lodderomyces orthopsilosis, isolate ATC-194"}, "[28]": {"system": "Candida orthopsilosis", "assay": "Antifungal activity against Candida orthopsilosis clinical isolate bloodstream form assessed as time required for 99.9% reduction in fungal growth at 1 mg/L by time-kill assay", "type": "functional"}, "[29]": {"system": "Candida orthopsilosis", "assay": "Antifungal activity against Candida orthopsilosis clinical isolate bloodstream form assessed as time required for 99% reduction in fungal growth at 0.25 mg/L by time-kill assay", "type": "functional"}, "[30]": {"system": "Candida parapsilosis", "assay": "Antifungal activity against Candida parapsilosis clinical isolate bloodstream form assessed as inhibition of fungal regrowth at 0.03 to 32 mg/L after 6 hrs by time-kill assay", "type": "functional, organism-based"}, "[31]": {"system": "Candida parapsilosis", "assay": "Antifungal activity against Candida parapsilosis clinical isolate bloodstream form assessed as time required for 99% reduction in fungal growth at 0.25 mg/L by time-kill assay", "type": "functional"}, "[32]": {"system": "Candida parapsilosis", "assay": "Antifungal activity against Candida parapsilosis clinical isolate bloodstream form assessed as time required for 50% reduction in fungal growth at 16 mg/L by time-kill assay", "type": "functional"}, "[33]": {"system": "Candida parapsilosis", "assay": "Antifungal activity against Candida parapsilosis clinical isolate bloodstream form assessed as time required for 99% reduction in fungal growth at 16 mg/L by time-kill assay", "type": "functional"}, "[34]": {"system": "Candida parapsilosis", "assay": "Antifungal activity against Candida parapsilosis clinical isolate bloodstream form assessed as fungal count at 4 mg/L measured at 6 hrs by time-kill assay", "type": "functional"}, "[35]": {"system": "Candida metapsilosis", "assay": "Antifungal activity against Candida metapsilosis clinical isolate bloodstream form assessed as time required for 99% reduction in fungal growth at 4 mg/L by time-kill assay", "type": "functional"}, "[36]": {"system": "Candida parapsilosis", "assay": "Antifungal activity against Candida parapsilosis clinical isolate bloodstream form assessed as induction of maximal fungal death at 8 mg/L after 48 hrs by time-kill assay", "type": "functional, organism-based"}, "[37]": {"system": "Candida parapsilosis", "assay": "Antifungal activity against Candida parapsilosis clinical isolate bloodstream form assessed as induction of miniparadoxical effect at 32 mg/L after 48 hrs by time-kill assay", "type": "functional, organism-based"}, "[38]": {"system": "Candida orthopsilosis", "assay": "Antifungal activity against Candida orthopsilosis clinical isolate bloodstream form assessed as time required for 99.9% reduction in fungal growth at 0.25 mg/L by time-kill assay", "type": "functional"}, "[39]": {"system": "Candida parapsilosis", "assay": "Antifungal activity against Candida parapsilosis clinical isolate bloodstream form assessed as time required for 90% reduction in fungal growth at 16 mg/L by time-kill assay", "type": "functional"}}, "note": "The source made the active and inactive calls. No cut-off for these calls is given here. Numbered stars: 1 amine (or outer) side, 2 acyl side, 3 side chain; on linkers, the order of the positions; unused ones are H or OH. Bridge positions count the residues as written; N and C are the ends. Square brackets hold non-standard residues; d marks the D form. Peptide text beside a SMILES is read from it. * marks the point of attachment. pTerphenylCO(4''-OnC5H11) = CCCCCOc1ccc(-c2ccc(-c3ccc(C(=O)*)cc3)cc2)cc1; Orn(4R-OH,5R-OH) = O=C([C@H](C[C@@H](O)[C@@H](O)N[*:3])N[*:1])[*:2]; hTyr(3S-OH,4S-OH) = N[C@H](C(=O)O)[C@H](O)[C@@H](O)c1ccc(O)cc1; Pro(3S-OH,4S-Me) = C[C@H]1CN[C@H](C(=O)O)[C@H]1O; Hyp = O=C(O)[C@@H]1C[C@@H](O)CN1", "data": [{"smiles": "CCCCCOc1ccc(-c2ccc(-c3ccc(C(=O)N[C@H]4C[C@@H](O)[C@@H](O)NC(=O)[C@@H]5[C@@H](O)[C@@H](C)CN5C(=O)[C@H]([C@@H](C)O)NC(=O)[C@H]([C@H](O)[C@@H](O)c5ccc(O)cc5)NC(=O)[C@@H]5C[C@@H](O)CN5C(=O)[C@H]([C@@H](C)O)NC4=O)cc3)cc2)cc1", "note": "[ANIDULAFUNGIN] ({pTerphenylCO(4''-OnC5H11)}-[Orn(4R-OH,5R-OH)]T[Hyp][hTyr(3S-OH,4S-OH)]T[Pro(3S-OH,4S-Me)]; lactam 1-C)", "values": [{"measurement": "Time", "setting": "[1]", "value": 9.08, "unit": "h"}, {"measurement": "Time", "setting": "[2]", "value": 1.57, "unit": "h"}, {"measurement": "MIC", "setting": "[3]", "value": 1, "unit": "µg/mL"}, {"measurement": "Time", "setting": "[4]", "value": 18.17, "unit": "h"}, {"measurement": "Time", "setting": "[5]", "value": 17.4, "unit": "h"}, {"measurement": "Time", "setting": "[6]", "value": 4.91, "unit": "h"}, {"measurement": "Time", "setting": "[7]", "value": 6.24, "unit": "h"}, {"measurement": "Time", "setting": "[8]", "value": 2.73, "unit": "h"}, {"measurement": "Activity", "setting": "[9]", "value": "Active"}, {"measurement": "Time", "setting": "[10]", "value": 51.41, "unit": "h"}, {"measurement": "Time", "setting": "[11]", "value": 41.84, "unit": "h"}, {"measurement": "Time", "setting": "[12]", "value": "inactive"}, {"measurement": "Time", "setting": "[13]", "value": 7.74, "unit": "h"}, {"measurement": "Time", "setting": "[14]", "value": 12.48, "unit": "h"}, {"measurement": "MIC", "setting": "[15]", "value": 0.03, "unit": "µg/mL"}, {"measurement": "Time", "setting": "[16]", "value": 27.89, "unit": "h"}, {"measurement": "Time", "setting": "[17]", "value": "inactive"}, {"measurement": "Activity", "setting": "[18]", "value": "Active"}, {"measurement": "MIC", "setting": "[19]", "value": 0.5, "unit": "µg/mL"}, {"measurement": "Time", "setting": "[20]", "value": 14.06, "unit": "h"}, {"measurement": "MIC", "setting": "[21]", "value": 0.25, "unit": "µg/mL"}, {"measurement": "Time", "setting": "[22]", "value": 10.02, "unit": "h"}, {"measurement": "Time", "setting": "[23]", "value": 13.95, "unit": "h"}, {"measurement": "Time", "setting": "[24]", "value": 15.67, "unit": "h"}, {"measurement": "Activity", "setting": "[25]", "value": "Active"}, {"measurement": "Time", "setting": "[26]", "value": "inactive"}, {"measurement": "MIC", "setting": "[27]", "value": 0.12, "unit": "µg/mL"}, {"measurement": "Time", "setting": "[28]", "value": ">48", "unit": "h"}, {"measurement": "Time", "setting": "[29]", "value": ">48", "unit": "h"}, {"measurement": "inhibition", "setting": "[30]", "value": "inactive"}, {"measurement": "Time", "setting": "[31]", "value": "inactive"}, {"measurement": "Time", "setting": "[32]", "value": 7.84, "unit": "h"}, {"measurement": "Time", "setting": "[33]", "value": ">48", "unit": "h"}, {"measurement": "log10cfu", "setting": "[34]", "value": "1.48 /ml"}, {"measurement": "Time", "setting": "[35]", "value": 15.89, "unit": "h"}, {"measurement": "Activity", "setting": "[36]", "value": "Active"}, {"measurement": "Activity", "setting": "[37]", "value": "Active"}, {"measurement": "Time", "setting": "[38]", "value": ">48", "unit": "h"}, {"measurement": "Time", "setting": "[39]", "value": 26.04, "unit": "h"}]}]}
